Patent publication US11446299B2, “Carbazole EHop-016 derivatives as anticancer and anti-migratory agents” (UNIVERSITY OF PUERTO RICO, priority 2017, dated 2022)
“And” between values parts separate entries of the source, which are not always exact repeats. Equal values may be shown once.

Legend:
caspase 3 = test: Caspase-Glo 3/7 assay; format: cell-based, human
Description: FIG. 15 (A-D). Effect of HV-107 and HV-118 on Caspase 3/7 activity. FIG. 15 A, C. MDA-MB-231 and FIG. 15 B, D. MDA-MB-435 human metastatic breast cancer cells were treated for 48 or 72 h with 0, 500 or 1000 nM HV-107, 100 or 200 nM HV-118. Caspase 3/7 activity was measured using the Caspase-Glo 3/7 Assay (Promega, Corp.) as per manufacturer's instruction. N=4: error bars represent ±SEM; * p≤0.05.
(§1) Subsequently, the effects of HV-107 and HV-118 were evaluated in cell survival and cell migration, known Rac-regulated cell functions relevant for cancer progression. The effects of HV-107 and HV-118 on cancer cell survival were determined by measuring the levels of active caspase 3 in MDA-MB-231 and MDA-MB-435 metastatic breast cancer cells after treatment with HV-107 at 500 and 1000 nM, or HV-118 at 100 and 200 nM for 48-72 h. After 48 h, HV-107 caused a significant 1.4-1.5 fold increase in caspase 3 activity in MDA-MB-231 (at 500 and 1000 nM) and MDA-MB-435 (at 1000 nM) cells. […] The effects of both compounds were also examined in the activity of Akt, an important kinase that promotes survival signaling, is frequently hyperactivated in malignant cancers, and can be regulated by Rac. Because Akt is activated by phosphorylation events, the effects of HV-107 and HV-118 were analyzed in Akt phosphorylation by western blot (FIG. 16 (A-D)).

Akt = Akt phosphorylation by western blot; format: cell-based, human; conditions: 24 h
Description: FIG. 16 (A-D). Inhibition of pAKT by HV-107 and HV-118. FIG. 16 A, C. MDA-MB-231 and FIG. 16 B, D. MDA-MB-435 human metastatic breast cancer cells were treated for 24 h with 0, 250, 500 or 1000 nM HV-107, 100 or 200 nM HV-118. After treatment, total protein was extracted, and equal amounts of proteins were western blotted for total and phosphorylated Akt (pAkt). Positive bands were quantified using image J. N=4-6; error bars represent t SEM; * p≤0.05.
as §1

[1] = test system: MDA-MB-231 and MDA-MB435 metastatic breast cancer cell lines; test: Wound healing assay of HV-107 and HV-118; format: cell-based; conditions: Homo sapiens, 24 h, read-out: inhibition of cell migration
Description: FIG. 17 (A-B). Effect of HV-107 and HV-118 on cell migration. Wounds were created on confluent monolayers of MDA-MB-231 or MDA-MB-435 human metastatic breast cancer cells. Immediately after, cells were treated for 24 h with FIG. 17A. 0, 1000, or 2000 nM of HV-107; and FIG. 17B. 0, 100, or 200 nM HV-118. The distance traveled by HV-107 and HV-118 treated cells that migrated to close the wound was quantified relative to the distance traveled by control-treated cells. N=4-7; error bars represent ±SEM; * p≤0.05.
Finally, wound healing assays were performed to assess the effects of HV-107 and HV-118 on metastatic breast cancer cell migration.

Rac = Rac (Homo sapiens, UniProt P63000); test: Rac activation, pulldown with p21-binding domain of PAK / ELISA-based Rac activity assay; format: cell-based; design: endogenous in cells; host or cells: MDA-MB-231 and MDA-MB-435 human breast cancer cells; conditions: for efficiency of Rac activation inhibition compared to lead compound Ehop-016: metastatic breast cancer cells
Description: FIG. 8 (A-B). Effect of HV-107 on Rac activation. FIG. 8A. MDA-MB-231 and FIG. 8B. MDA-MB-435 human breast cancer cells were treated for 24 h with 0, 100, or 250 nM HV-107. After treatment, total protein was extracted and equal amounts of proteins subjected to pulldown assays using the p21-binding domain of PAK to isolate the GTP bound (active) Rac. Samples were then western blotted for total and active Rac and positive bands quantified using image J. N=2; error bars represent ±SEM; * p≤0.05.
FIG. 10 (A-B). Effect of HV-118 on Rac activation. FIG. 10A. MDA-MB-231 and FIG. 10B. MDA-MB-435 human breast cancer cells were treated for 24 h with 0, 25, 50, or 100 nM HV-118. After treatment, total protein was extracted and equal amounts of proteins subjected to pulldown assays using the p21-binding domain of PAK to isolate the GTP bound (active) Rac. Samples were then western blotted for total and active Rac and positive bands quantified using image J. N=3-6; error bars represent ±SEM; * p≤0.05.
Additionally, the effect of replacing the aliphatic amide group at the 3-position with an aromatic ring, was also explored by synthesizing compound 7b. […] Addition of a three-carbon atom aliphatic chain linker between the pyridine ring (at the 2-position) and the morpholine group, as for 3d and 11a, results in some loss of anti-migratory activity. Moreover, the effect of 11b was tested on Rac activity, using an ELISA-based Rac activity assay and pulldowns assay.
The effects of HV-107 on the inhibition of Rac activation were tested by pulldown assays.
In FIG. 8A and FIG. 8B, human breast cancer cells MDA-MB-231 and MDA-MB-435, respectively, were treated for 24 h with […] HV-107. After treatment, total protein was extracted and equal amounts of proteins subjected to pulldown assays using the p21-binding domain of PAK to isolate the GTP bound (active) Rac. Samples were then western blotted for total and active Rac and positive bands quantified using image J. N=2; error bars represent ±SEM; * p≤0.05.
The effects of HV-118 on the inhibition of Rac activation were tested by pulldown assays.
In FIG. 10A and FIG. 10B, human breast cancer cells MDA-MB-231 and MDA-MB-435, respectively, were treated for 24 h with 0, 25, 50, or 100 nM HV-118. After treatment, total protein was extracted and equal amounts of proteins subjected to pulldown assays using the p21-binding domain of PAK to isolate the GTP bound (active) Rac. Samples were then western blotted for total and active Rac and positive bands quantified using image J. N=3-6; error bars represent ±SEM; * p≤0.05.

SMILES	fold increase in caspase 3 activity (caspase 3; MDA-MB-231, 48 h, 500 and 1000 nM)	fold increase in caspase 3 activity (caspase 3; MDA-MB-435, 48 h, 1000 nM)	inhibition at 1 µM (Akt; Homo sapiens, MDA-MB-435, 1000 nM)	inhibition of Akt phosphorylation (Akt; MDA-MB-231, 250-1000 nM)	inhibition at 2 µM ([1]; 2000 nM)	inhibition at 0.25 µM (Rac; at 250 nM, 24 h, MDA-MB-231 and MDA-MB-435 cells)	inhibition of Rac activation (Rac; at 250 nM, 24 h, MDA-MB-231 and MDA-MB-435 cells, listed as HV-107, 0.25 µM)	efficiency of Rac activation inhibition compared to lead compound Ehop-016 (Rac)	fold increase in caspase 3 activity (caspase 3; MDA-MB-231, 48 h, 100 and 200 nM)	fold increase in caspase 3 activity (caspase 3; MDA-MB-435, 72 h, 'the same level' as in MDA-MB-231)	inhibition of Akt phosphorylation (Akt; both MDA-MB-231 and MDA-MB-435, 100 and 200 nM)	inhibition at 0.1 µM ([1]; 100 nM)	inhibition at 0.2 µM ([1]; 200 nM)	inhibition at 0.1 µM (Rac; at 100 nM, 24 h, MDA-MB-231 and MDA-MB-435 cells)	potency relative to EHop-016 (Rac; preliminary data)
CCn1c2ccccc2c2cc(C(=O)Nc3cccnc3N3CCOCC3)ccc21 [Compound 11b, 9-Ethyl-9H-carbazole-3-carboxylic Acid (2-morpholin-4-yl-pyridin-3-yl)-amide]	1.4-1.5 fold	1.4-1.5 fold	25%	50-60%	30 to 50%	55%	60% and 50%	approximately 4 ×							
CCn1c2ccccc2c2cc(Nc3cc(C)nc(Cl)n3)ccc21 [HV-118, (2-Chloro-6-methyl-pyrimidin-4-yl)-(9-ethyl-9H-carbazol-3-yl)-amine]								approximately 10 ×	1.6-1.8 fold	1.6-1.8 fold	40-60%	~60%	~80%	~60%	up to 20 times
